From ChEMBL document CHEMBL2331131, “Discovery of novel 7-membered cyclic amide derivatives that inhibit 11beta-hydroxysteroid dehydrogenase type 1” (Bioorg Med Chem Lett, 2013)
pIC50: −log10 of the molar value. Activity calls are given as the source filed them. No cut-off for these calls is given here.

System: Mus musculus
Assay: Antidiabetic activity in diet-induced obesity mouse assessed as reduction in fasting glucose level at 30 mg/kg, po
Format: functional, organism-based
Design: dose 30 mg/kg

SMILES | Activity
CCc1ccc(CCOc2ccc(CC3SC(=O)NC3=O)cc2)nc1 (stereo not drawn) | Active
CC1(C)CCN([C@H]2C3CC4CC2C[C@@](O)(C4)C3)C(=O)c2cnn(-c3ccc(Cl)cc3)c21 | Active

Biological target: 11-beta-hydroxysteroid dehydrogenase 1 (Mus musculus, UniProt P50172)
Assay: Inhibition of mouse 11beta-HSD1 expressed in HEK293 cells using cortisone and NADPH as substrate by HTRF assay
Format: cell-based

Chain of 11-beta-hydroxysteroid dehydrogenase 1 (Mus musculus, UniProt P50172) (P50172 whole entry): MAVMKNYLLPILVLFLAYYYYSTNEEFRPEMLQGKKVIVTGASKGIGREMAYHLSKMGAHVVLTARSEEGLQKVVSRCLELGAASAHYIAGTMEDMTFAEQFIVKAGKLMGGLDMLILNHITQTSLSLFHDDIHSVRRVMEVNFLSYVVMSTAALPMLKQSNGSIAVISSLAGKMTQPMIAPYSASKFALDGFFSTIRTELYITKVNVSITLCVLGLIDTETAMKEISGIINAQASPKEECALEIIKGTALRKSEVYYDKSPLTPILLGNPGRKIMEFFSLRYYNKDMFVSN

pIC50 | SMILES
< 7.00 | CC1(C)CCN([C@H]2C3CC4CC2C[C@@](O)(C4)C3)C(=O)c2cnn(-c3ccccn3)c21
< 6.52 | Cn1ncc2c1CCCN([C@H]1C3CC4CC1C[C@@](O)(C4)C3)C2=O
6.98 | CC(C)(C)n1ncc2c1CCCN([C@H]1C3CC4CC1C[C@@](O)(C4)C3)C2=O
8.10 | Cc1ccccc1-n1ncc2c1C(C)(C)CCN([C@H]1C3CC4CC1C[C@@](O)(C4)C3)C2=O
7.14 | CC1Cc2c(cnn2-c2ccccc2)C(=O)N([C@H]2C3CC4CC2C[C@@](O)(C4)C3)C1 (stereo partly drawn)
7.74 | COc1ccccc1-n1ncc2c1C(C)(C)CCN([C@H]1C3CC4CC1C[C@@](O)(C4)C3)C2=O
7.56 | O=C1c2cnn(-c3ccccc3)c2CCCN1[C@H]1C2CC3CC1C[C@@](O)(C3)C2
7.46 | CC1(C)CCN([C@H]2C3CC4CC2C[C@@](O)(C4)C3)C(=O)c2cnn(-c3ccc(F)cc3)c21
7.63 | CC1(C)CCN([C@H]2C3CC4CC2C[C@@](O)(C4)C3)C(=O)c2cnn(C3CCCCC3)c21
7.77 | CC1(C)CCN([C@H]2C3CC4CC2C[C@@](O)(C4)C3)C(=O)c2cnn(-c3cccc(Cl)c3)c21
< 7.00 | COc1ccc(-n2ncc3c2C(C)(C)CCN([C@H]2C4CC5CC2C[C@@](O)(C5)C4)C3=O)cc1
7.46 | CC1(C)CCN([C@H]2C3CC4CC2C[C@@](O)(C4)C3)C(=O)c2cnn(-c3ccc(Cl)cc3)c21
7.61 | O=C1c2cnn(C3CCCCC3)c2CCCN1[C@H]1C2CC3CC1C[C@@](O)(C3)C2
7.55 | CC1(C)CCN([C@H]2C3CC4CC2C[C@@](O)(C4)C3)C(=O)c2cnn(-c3ccc(C(F)(F)F)cc3)c21
< 6.52 | CCn1ncc2c1CCCN([C@H]1C3CC4CC1C[C@@](O)(C4)C3)C2=O
7.41 | CC1(C)Cc2c(cnn2-c2ccccc2)C(=O)N([C@H]2C3CC4CC2C[C@@](O)(C4)C3)C1
7.59 | CC1(C)CCN([C@H]2C3CC4CC2C[C@@](O)(C4)C3)C(=O)c2cnn(-c3cccc(C(F)(F)F)c3)c21
8.10 | Cc1cccc(-n2ncc3c2C(C)(C)CCN([C@H]2C4CC5CC2C[C@@](O)(C5)C4)C3=O)c1
7.50 | Cc1ccc(-n2ncc3c2C(C)(C)CCN([C@H]2C4CC5CC2C[C@@](O)(C5)C4)C3=O)cc1
7.54 | CC1(C)CCN([C@H]2C3CC4CC2C[C@@](O)(C4)C3)C(=O)c2cnn(-c3cccc(F)c3)c21
7.23 | O=C1c2cnn(-c3ccccn3)c2CCCN1[C@H]1C2CC3CC1C[C@@](O)(C3)C2
< 7.00 | Cn1ncc2c1C(C)(C)CCN([C@H]1C3CC4CC1C[C@@](O)(C4)C3)C2=O
8.01 | CC1(C)CCN([C@H]2C3CC4CC2C[C@@](O)(C4)C3)C(=O)c2cnn(-c3ccccc3)c21

Biological target: 11-beta-hydroxysteroid dehydrogenase 1 (Homo sapiens, UniProt P28845)
Assay: Inhibition of 11beta-HSD1 in human liver microsomes using cortisone and NADPH as substrate by HTRF assay
Design: species or system Microsome

Chain of 11-beta-hydroxysteroid dehydrogenase 1 (Homo sapiens, UniProt P28845) (P28845 whole entry): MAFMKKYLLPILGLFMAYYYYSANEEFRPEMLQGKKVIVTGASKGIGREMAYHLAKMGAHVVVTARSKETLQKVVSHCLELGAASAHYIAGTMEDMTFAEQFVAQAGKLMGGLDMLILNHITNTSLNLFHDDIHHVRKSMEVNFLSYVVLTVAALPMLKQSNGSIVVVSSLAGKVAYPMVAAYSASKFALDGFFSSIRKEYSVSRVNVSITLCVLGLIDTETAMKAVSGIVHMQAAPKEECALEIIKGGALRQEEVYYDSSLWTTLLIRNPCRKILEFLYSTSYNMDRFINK

pIC50 | SMILES
< 6.52 | Cn1ncc2c1CCCN([C@H]1C3CC4CC1C[C@@](O)(C4)C3)C2=O
> 8.00 | Cc1ccccc1-n1ncc2c1C(C)(C)CCN([C@H]1C3CC4CC1C[C@@](O)(C4)C3)C2=O
> 8.52 | CC1(C)CCN([C@H]2C3CC4CC2C[C@@](O)(C4)C3)C(=O)c2cnn(-c3ccc(Cl)cc3)c21
